Tested on: soybean seedlings
Assay: Soybean seedling response to spot infiltrated auxins and conjugates; on 1st trifoliate leaf curl: key: 0 = no phenotype; +/− = threshold
Assay type: in vivo
Settings: for 1st trifoliate leaf curl: spot infiltration

For `O=C(O)COc1ccc(Cl)cc1Cl` [2,4-D, 2,4-dichlorophenoxyacetic acid], the “1st trifoliate leaf curl” value (100 μM) was 0, the “1st trifoliate leaf curl” value (250 μM) was 0 and the “1st trifoliate leaf curl” value (500 μM) was 0. For the same compound, the “Plant response phenotype, soybean” value (100, 250 & 500 μM, result in words) was “increased auxinic response ranging from mild to extreme epinasty”.

From patent publication US20150351390A1, “COMPOSITIONS AND METHODS FOR AUXIN-ANALOG CONJUGATION” (PIONEER HI-BRED INTERNATIONAL, INC., priority 2012, published 2015)
